Results reported in publication PMC11915801, “Evolutionary trajectory of bacterial resistance to antibiotics and antimicrobial peptides in Escherichia coli” (mSystems, 2025).
≈ marks a conversion by molar mass, not a printed value. Read-outs that look alike come from different tables or passages of the source.

Assays:
Test in all cases: microbe, parasite or virus in culture
Assay type in all cases: cell-based, Escherichia coli
E. coli K-12 MG1655 = settings: Escherichia coli
Procedure: (§1) The broth microdilution method was used to measure the MIC values of antibiotics and peptides according to the Clinical and Laboratory Standards Institute guidelines. The MIC value is defined as the lowest drug concentration without visible bacteria.
Eight antibiotics and ten AMPs at the sub-inhibitory concentration were prepared. A 300-µL system, including 260 µL of MH broth, 30 µL of prepared drug, and 10 µL of bacterial culture, was used for resistance passages. After 12 h of incubation at 37℃ and 200 rpm, 10 µL of the above bacterial culture was added into the new sterile drug-containing broth. MIC values of bacterial culture were determined. The drug concentration was adjusted according to the MIC value change until the end of the 120 passages.

KAN80 (evolved MG1655) = settings: Escherichia coli, MG1655; broth microdilution; kanamycin-evolved strain
From the text: (§2) To ensure the stable resistance evolution and inheritance of MG1655 under different drugs, we randomly selected three monoclonals from the evolved strains. The final antibiotic-evolved strains were designated as AMP120, AZI120, CHL80, CIP120, DOX120, KAN80, NIT70, and TMP30, while the final AMP-evolved strains were named COL120, Ind120, Omi120, Pex120, PGLA120, Pleu120, R8120, SAAP120, LI120, and SLAP120.
as §1

CIP120 (evolved MG1655) = settings: Escherichia coli; broth microdilution; ciprofloxacin-evolved strain
From the text: as §2, §1

DOX120 (evolved MG1655) = settings: Escherichia coli, MG1655; broth microdilution; doxycycline-evolved strain
From the text: as §2, §1

CHL80 (evolved MG1655) = settings: Escherichia coli, MG1655; broth microdilution; chloramphenicol-evolved strain
From the text: as §2, §1

COL120 (evolved MG1655) = settings: for MIC: Escherichia coli, MG1655, broth microdilution, colistin-evolved strain
From the text: as §2, §1

NIT70 (evolved MG1655) = settings: Escherichia coli, MG1655; broth microdilution; nitrofurantoin-evolved strain
From the text: as §2, §1

TMP30 (evolved MG1655) = settings: Escherichia coli, MG1655; broth microdilution; trimethoprim-evolved strain
From the text: as §2, §1

AMP120 (evolved MG1655) = settings: Escherichia coli, MG1655; broth microdilution; ampicillin-evolved strain
From the text: as §2, §1

AZI120 (evolved MG1655) = settings: Escherichia coli, MG1655; broth microdilution; azithromycin-evolved strain
From the text: as §2, §1

[1] = MG1655, 12 h, read-out: MIC of MG1655 under the pressure of the same drug, generation 10
[2] = MG1655, read-out: MIC of MG1655 under the pressure of the same drug, generation primary
[3] = MG1655, as E2, generation 20, read-out: MIC of MG1655 under the pressure of the same drug, generation 20
[4] = MG1655, as E2, generation 30, read-out: MIC of MG1655 under the pressure of the same drug, generation 30
[5] = MG1655, as E2, generation 40, read-out: MIC of MG1655 under the pressure of the same drug, generation 40
[6] = MG1655, as E2, generation 50, read-out: MIC of MG1655 under the pressure of the same drug, generation 50
[7] = MG1655, as E2, generation 60, read-out: MIC of MG1655 under the pressure of the same drug, generation 60
[8] = MG1655, as E2, generation 70, read-out: MIC of MG1655 under the pressure of the same drug, generation 70
[9] = MG1655, as E2, generation 80, read-out: MIC of MG1655 under the pressure of the same drug, generation 80
[10] = MG1655, as E2, generation 90, read-out: MIC of MG1655 under the pressure of the same drug, generation 90
[11] = MG1655, as E2, generation 100, read-out: MIC of MG1655 under the pressure of the same drug, generation 100
[12] = MG1655, as E2, generation 110, read-out: MIC of MG1655 under the pressure of the same drug, generation 110
[13] = MG1655, as E2, generation 120, read-out: MIC of MG1655 under the pressure of the same drug, generation 120

| Structure (SMILES) | MIC (E. coli K-12 MG1655; [1]) [µg/mL] | MIC (E. coli K-12 MG1655; [2]) [µg/mL] | MIC (E. coli K-12 MG1655; [3]) [µg/mL] | MIC (E. coli K-12 MG1655; [4]) [µg/mL] | MIC (E. coli K-12 MG1655; [5]) [µg/mL] | MIC (E. coli K-12 MG1655; [6]) [µg/mL] | MIC (E. coli K-12 MG1655; [7]) [µg/mL] | MIC (E. coli K-12 MG1655; [8]) [µg/mL] | MIC (E. coli K-12 MG1655; [9]) [µg/mL] | MIC (E. coli K-12 MG1655; [10]) [µg/mL] | MIC (E. coli K-12 MG1655; [11]) [µg/mL] | MIC (E. coli K-12 MG1655; [12]) [µg/mL] | MIC (E. coli K-12 MG1655; [13]) [µg/mL] | MIC (KAN80 (evolved MG1655)) [µg/mL] | MIC (CIP120 (evolved MG1655)) [µg/mL] | MIC (DOX120 (evolved MG1655)) [µg/mL] | MIC (CHL80 (evolved MG1655)) [µg/mL] | MIC (COL120 (evolved MG1655)) [µg/mL] | MIC (NIT70 (evolved MG1655)) [µg/mL] | MIC (TMP30 (evolved MG1655)) [µg/mL] | also measured |
| --- | --- | --- | --- | --- | --- | --- | --- | --- | --- | --- | --- | --- | --- | --- | --- | --- | --- | --- | --- | --- | --- |
| C[C@H]1c2cccc(O)c2C(=O)C2=C(O)[C@]3(O)C(=O)C(C(N)=O)=C(O)[C@@H](N(C)C)[C@@H]3[C@@H](O)[C@@H]21 [DOX, Doxycycline] | 16 | 2 | 32 | 32 | 32 | 32 | 32 | 32 | 32 | 32 | 32 | 32 | 32 | 1 (≈ 2.25 µM) | 16 (≈ 36 µM) | 32 (≈ 72 µM) | 16 (≈ 36 µM) | 4 (≈ 9 µM) | 8 (≈ 18 µM) | 4 (≈ 9 µM) | MIC (AMP120 (evolved MG1655)): 2 µg/mL (≈ 4.5 µM); MIC (AZI120 (evolved MG1655)): 8 µg/mL (≈ 18 µM) |
| CC1(C)S[C@@H]2[C@H](NC(=O)[C@H](N)c3ccccc3)C(=O)N2[C@H]1C(=O)O [AMP, Ampicillin] | 8 | 4 | 8 | 8 | 16 | 16 | 16 | 16 | 16 | 32 | 32 | 64 | 64 | 4 (≈ 11.4 µM) | 16 (≈ 45.8 µM) | 32 (≈ 91.6 µM) | 64 (≈ 183 µM) | 4 (≈ 11.4 µM) | 4 (≈ 11.4 µM) | 4 (≈ 11.4 µM) | MIC (AMP120 (evolved MG1655)): 64 µg/mL (≈ 183 µM); MIC (AZI120 (evolved MG1655)): 2 µg/mL (≈ 5.72 µM) |
| CC[C@H]1OC(=O)[C@H](C)[C@@H](O[C@H]2C[C@@](C)(OC)[C@@H](O)[C@H](C)O2)[C@H](C)[C@@H](O[C@@H]2O[C@H](C)C[C@H](N(C)C)[C@H]2O)[C@](C)(O)C[C@@H](C)CN(C)[C@H](C)[C@@H](O)[C@]1(C)O [AZI, Azithromycin] | 2 | 2 | 2 | 2 | 2 | 4 | 4 | 4 | 4 | 4 | 4 | 8 | 16 | 2 (≈ 2.67 µM) | 4 (≈ 5.34 µM) | 2 (≈ 2.67 µM) | 2 (≈ 2.67 µM) | 0.5 (≈ 0.668 µM) | 4 (≈ 5.34 µM) | 16 (≈ 21.4 µM) | collateral sensitivity of COL120 (fold change of MIC vs wild-type MG1655) (COL120 (evolved MG1655); MIC of COL120 compared with MG1655): exceeding fourfold; MIC (AMP120 (evolved MG1655)): 1 µg/mL (≈ 1.34 µM); MIC (AZI120 (evolved MG1655)): 16 µg/mL (≈ 21.4 µM) |
